Experimental data taken from patent US20220235043A1, “SUBSTITUTED SULFONAMIDE PYRROLOPYRIDINES AS JAK INHIBITORS” (ACLARIS THERAPEUTICS, INC., priority 2019, published 2022).

How the values were obtained:
[1] = molecular target: T1, JAK3 (a.a. 781-1124) (Homo sapiens, UniProt P52333); test: JAK3 enzyme activity assay (SRCtide phosphorylation, Caliper); format: biochemical; conditions: 1 uM ATP; read-out: JAK3 Inhibition IC50
T1 construct: JAK3 (a.a. 781-1124, ThermoFisher); purchased ThermoFisher
T1 sequence (P52333 781-1124): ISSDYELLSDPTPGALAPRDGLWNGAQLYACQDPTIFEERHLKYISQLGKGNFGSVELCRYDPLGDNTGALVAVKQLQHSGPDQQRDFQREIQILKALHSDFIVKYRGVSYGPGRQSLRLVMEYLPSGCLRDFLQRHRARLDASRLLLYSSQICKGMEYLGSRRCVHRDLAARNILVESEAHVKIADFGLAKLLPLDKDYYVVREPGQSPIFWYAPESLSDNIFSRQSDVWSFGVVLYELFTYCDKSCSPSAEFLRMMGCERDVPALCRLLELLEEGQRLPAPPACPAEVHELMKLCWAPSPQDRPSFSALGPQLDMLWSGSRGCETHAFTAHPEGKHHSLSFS
How it was run: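 Kinase reactions used 2.5 nM JAK3 (aa 781-1124), 1 μM FAM-SRCtide and 1 uM ATP in HEPES pH 7.5, MgCl2, BSA, Tween-20, 2% DMSO. Incubation was 40 min at room temperature, stopped with EDTA. Phospho/unphospho peptide separated by Caliper mobility shift; IC50 from 11-point 3-fold 4-parameter fits.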

[2] = test system: IL-2 stimulated STAT5 phosphorylation on Tyr694 (JAK1/3); test: JAK1/3 cellular target modulation: IL-2 stimulated phospho-STAT5 in human PBMC; format: cell-based; conditions: IL-2 25 ng/ml, read-out: IL2-STAT5 IC50
How it was run: (§1)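 Thawed human PBMC (200,000/well) preincubated with compound 1 h at 37°C, then stimulated with IL-12 1.7 ng/ml for 25 min, IFNγ 10 ng/ml for 10 min, or IL-2 25 ng/ml for 5 min. Lysate phospho-STAT4 Tyr693 and phospho-STAT5 Tyr694 read by MSD; phospho-STAT1 Tyr701 by sandwich ELISA.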

[3] = test system: IFNγ stimulated STAT1 phosphorylation on Tyr701 (JAK1/2); test: JAK1/2 cellular target modulation: IFNγ stimulated phospho-STAT1 in human PBMC; format: cell-based; conditions: IFNγ 10 ng/ml, read-out: Infγ-STAT1 IC50
How it was run: as §1

[4] = test system: IL-12 stimulated STAT4 phosphorylation on Tyr693 (JAK2/TYK2); test: JAK2/TYK2 cellular target modulation: IL-12 stimulated phospho-STAT4 in human PBMC; format: cell-based; conditions: IL-12 1.7 ng/ml, read-out: IL12-STAT4 IC50
How it was run: as §1

[5] = GI Exposure PK in Mice; format: in vivo; conditions: mouse, male BalbC mice, oral dose of 5 mg/kg
Experimental: The test compound, Example 75, was wetted with ˜0.025% of Tween-20 and triturated in a mortar and pestle, then slowly 0.5% of methyl cellulose was added to make up the final volume to 7.25 mL. The BalbC test animals were subjected to anesthesia induced with a mixture of 5% isoflurane and 0.8-1.5 L/min O2 gas flow. The formulated test compound was then dosed via oral gavage. At various time points (0.5, 1, 2, 4, 6 and 8 h) blood samples (˜100 μL) were collected from portal vein (pre-hepatic) followed by cardiac puncture (circulating) into tubes containing 2% w/v aqueous K2 EDTA solution as per time points. Post blood sampling, the gastro intestine (GI) tissues were collected from the mice at the same time points. The GI tissue was dissected into different parts as duodenum, jejunum, ileum and colon. The separated tissues were washed by flushing with PBS via oral gavage needle to remove GI content. Post collection all the tissues were blotted, weighed and homogenized with PBS buffer (pH 7.4). The blood samples were immediately placed on ice and centrifuged within 30 min at 4° C. for 5 min at 8,000 rpm to obtain plasma. Plasma was transferred by pipettes to pre-labelled centrifuge tubes and immediately transferred to −80° C. until bioanalysis. Tissue samples were placed in pre-labelled container and all samples were kept in −80° C. until homogenized. The homogenate was stored immediately in −80° C. until bioanalysis was conducted. Study samples were thawed to room temperature and 50 μL of sample was aliquoted into pre-labeled vials. To these was added 400 μL of 100% acetonitrile containing an IS (100 ng/mL; warfarin, tolbutamide and loperamide). The vials were mixed well, vortexed for 5 min, followed by centrifugation for 5 min at 14000 rpm at 4° C. The supernatant was separated and same was injected on LC-MS/MS. Plasma and GI tissue levels of test compound were determined by LC-MS analysis using a standard curve in the text matrix. Individual concentration-time data were analyzed using Phoenix WinNonlin (Version 8.1) by the non-compartmental analysis (NCA) method.

[6] = portal vein plasma, Portal plasma

IC50 [1]: 10 to 100 nM | IC50 [2]: ≤ 100 nM | IC50 [3]: 100 to 1000 nM | IC50 [4]: 100 to 1000 nM | AUC [5, 6]: 247 ng·h/mL | Tmax [5, 6]: 2 h | AUC ([5]; Colon): 5950 ng·h/mL | Tmax ([5]; Colon): 4 h | AUC ([5]; Duodenum): 1510 ng·h/mL | Tmax ([5]; Duodenum): 0.5 h | AUC ([5]; Ileum): 24500 ng·h/mL | Tmax ([5]; Ileum): 2 h | AUC ([5]; Jejunum): 13300 ng·h/mL | Tmax ([5]; Jejunum): 0.5 h
Structure (SMILES): Cc1nnc(-c2cnc3[nH]ccc3c2N[C@H]2C[C@@H](NS(=O)(=O)c3cccc(C#N)c3)C2)s1 [Example 75, 3-cyano-N-((1s,3s)-3-((5-(5-methyl-1,3,4-thiadiazol-2-yl)-1H-pyrrolo[2,3-b]pyridin-4-yl)amino)cyclobutyl)benzenesulfonamide]
